{
  "source": "patent US6440984B1",
  "about": "“Use of aryl-substituted pyrimidines as insecticidal and acaricidal agents” (BASF Aktiengesellschaft, priority 1998, dated 2002)",
  "type_in_all_cases": "in vivo",
  "key": {"[1]": {"test_system": "Aphis Fabae, Mixed Instar, Bean Aphid (BA)", "experiment": "Bean aphid (BA) foliar spray test, mortality after 2 days", "conditions": "rating scale; for pest or weed control at 300 ppm: Aphis fabae, 48 h, read-out: BA AD-FOLIAR 300 (ppm)", "protocol": "(§1) Test solutions are prepared by dissolving the test compound in a 35% acetone in water mixture to give a concentration of 10,000 ppm. Subsequent dilutions are made with water as needed.\nAphis Fabae, Mixed Instar, Bean Aphid (BA)\nPots containing single nasturtium plants (Tropaeolum sp.) about 5 cm tall are infested with about 100-200 aphids one day before the test. Each pot is sprayed with the test solution for 2 revolutions of a 4 rpm turntable in a hood. The spray is directed to give complete coverage of the plants and aphids. The sprayed pots are set on their sides on white trays and held for 2 days, following which mortality estimates are made. Essentially the same method is used with respect to cotton aphid (CA)."}, "[2]": {"test_system": "Spodoptera Eridania, 3rd Instar Larvae, Southern Armyworm (SAW)", "experiment": "Southern armyworm (SAW) leaf-dip test, observations at 5 days", "conditions": "Southern Army Worm, rating scale; for pest or weed control at 1000 ppm: Spodoptera eridania, foliar, 120 h, read-out: SAW 2^ND-FOLIAR 1000 (ppm)", "protocol": "as §1\nSpodoptera Eridania, 3rd Instar Larvae, Southern Armyworm (SAW)\nA Sieva lima bean leaf expanded to 7-8 cm in length is dipped in the test solution with agitation for 3 seconds and allowed to dry in a hood. The leaf is then placed in a 100×10 mm petri dish containing a damp filter paper on the bottom and ten 3rd instar caterpillars. At 5 days, observations are made of mortality, reduced feeding, or any interference with normal molting."}, "[3]": {"test_system": "Tetranychus Urticae (OP-resistant strain), 2-spotted Spider Mite (TSM)", "experiment": "Two-spotted spider mite (TSM) plant-dip test, mortality after 2 days", "conditions": "rating scale; for pest or weed control at 300 ppm: Tetranychus urticae, 48 h, read-out: TSM AD-FOLIAR 300 (ppm)", "protocol": "as §1\nTetranychus Urticae (OP-resistant strain), 2-spotted Spider Mite (TSM)\nSieva lima bean plants with primary leaves expanded to 7-8 cm are selected and cut back to one plant per pot. A small piece is cut from an infested leaf taken from the main colony and placed on each leaf of the test plants. This is done about 2 hours before treatment to allow the mites to move over to the test plant to lay eggs. The size of the cut, infested leaf is varied to obtain about 100 mites per leaf. At the time of test treatment, the piece of leaf used to transfer the mites is removed and discarded. The newly-infested plants are dipped in the test solution for 3 seconds with agitation and set in the hood to dry. After 2 days, one leaf is removed and mortality counts are made."}},
  "data": [
    {"smiles": "O=[N+]([O-])c1ccc(-c2ccnc(Oc3cccc(C(F)(F)F)c3)n2)cc1", "note": "[Compound 9]", "values": [
      {"measurement": "BA AD-FOLIAR 300 (ppm)", "setting": "[1]", "value": "B (B 45-75% kill)"}
    ]},
    {"smiles": "FC(F)(F)c1cccc(-c2ccnc(Oc3ccc(Cl)c(Cl)c3)n2)c1", "note": "[Compound 20]", "values": [
      {"measurement": "BA AD-FOLIAR 300 (ppm)", "setting": "[1]", "value": "B (B 45-75% kill)"},
      {"measurement": "SAW 2^ND-FOLIAR 1000 (ppm)", "setting": "[2]", "value": "A (A 0-45% kill)"}
    ]},
    {"smiles": "FC(F)(F)Oc1cccc(-c2ccnc(Oc3cc(Cl)cc(Cl)c3)n2)c1", "note": "[Compound 41]", "values": [
      {"measurement": "TSM AD-FOLIAR 300 (ppm)", "setting": "[3]", "value": "A (A 0-45% kill)"}
    ]},
    {"smiles": "FC(F)(F)Oc1ccc(-c2ccnc(Oc3cc(C(F)(F)F)cc(C(F)(F)F)c3)n2)cc1", "note": "[Compound 45]", "values": [
      {"measurement": "BA AD-FOLIAR 300 (ppm)", "setting": "[1]", "value": "C (C 76-100% kill)"}
    ]},
    {"smiles": "Clc1ccc(-c2ccnc(Oc3ccc(Cl)c(Cl)c3)n2)cc1", "note": "[Compound 151]", "values": [
      {"measurement": "pest or weed control at 300 ppm", "setting": "[1]", "value": "45 to 75", "unit": "%"}
    ]},
    {"smiles": "Fc1cc(-c2ccnc(Oc3ccc(F)c(C(F)(F)F)c3)n2)cc(C(F)(F)F)c1", "note": "[Compound 53]", "values": [
      {"measurement": "BA AD-FOLIAR 300 (ppm)", "setting": "[1]", "value": "C (C 76-100% kill)"},
      {"measurement": "SAW 2^ND-FOLIAR 1000 (ppm)", "setting": "[2]", "value": "A (A 0-45% kill)"}
    ]},
    {"smiles": "O=[N+]([O-])c1ccc(Oc2nccc(-c3ccc(OC(F)(F)F)cc3)n2)cc1C(F)(F)F", "note": "[Compound 49]", "values": [
      {"measurement": "BA AD-FOLIAR 300 (ppm)", "setting": "[1]", "value": "B (B 45-75% kill)"},
      {"measurement": "TSM AD-FOLIAR 300 (ppm)", "setting": "[3]", "value": "B (B 45-75% kill)"}
    ]},
    {"smiles": "O=[N+]([O-])c1ccc(Oc2nccc(-c3ccccc3)n2)cc1C(F)(F)F", "note": "[Compound 8]", "values": [
      {"measurement": "SAW 2^ND-FOLIAR 1000 (ppm)", "setting": "[2]", "value": "A (A 0-45% kill)"}
    ]},
    {"smiles": "CCc1cnc(Oc2ccc(F)c(C(F)(F)F)c2)nc1-c1cccc(C(F)(F)F)c1", "note": "[Compound 156]", "values": [
      {"measurement": "pest or weed control at 300 ppm", "setting": "[1]", "value": "76 to 100", "unit": "%"},
      {"measurement": "pest or weed control at 1000 ppm", "setting": "[2]", "value": "0 to 45", "unit": "%"},
      {"measurement": "pest or weed control at 300 ppm", "setting": "[3]", "value": "45 to 75", "unit": "%"}
    ]},
    {"smiles": "O=[N+]([O-])c1ccc(Oc2nccc(-c3ccc(Cl)cc3)n2)cc1C(F)(F)F", "note": "[Compound 3]", "values": [
      {"measurement": "SAW 2^ND-FOLIAR 1000 (ppm)", "setting": "[2]", "value": "B (B 45-75% kill)"}
    ]},
    {"smiles": "COc1ccc(-c2ccnc(Oc3ccc(F)c(C(F)(F)F)c3)n2)cc1", "note": "[Compound 153]", "values": [
      {"measurement": "pest or weed control at 300 ppm", "setting": "[1]", "value": "45 to 75", "unit": "%"}
    ]},
    {"smiles": "FC(F)(F)Oc1ccc(-c2ccnc(Oc3ccc(Cl)c(C(F)(F)F)c3)n2)cc1", "note": "[Compound 46]", "values": [
      {"measurement": "BA AD-FOLIAR 300 (ppm)", "setting": "[1]", "value": "B (B 45-75% kill)"},
      {"measurement": "SAW 2^ND-FOLIAR 1000 (ppm)", "setting": "[2]", "value": "B (B 45-75% kill)"}
    ]},
    {"smiles": "Fc1cc(F)cc(-c2ccnc(Oc3cccc(C(F)(F)F)c3)n2)c1", "note": "[Compound 61]", "values": [
      {"measurement": "BA AD-FOLIAR 300 (ppm)", "setting": "[1]", "value": "C (C 76-100% kill)"}
    ]},
    {"smiles": "COc1cccc(Oc2nccc(-c3ccc(Cl)cc3)n2)c1", "note": "[Compound 143]", "values": [
      {"measurement": "pest or weed control at 300 ppm", "setting": "[1]", "value": "76 to 100", "unit": "%"}
    ]},
    {"smiles": "O=[N+]([O-])c1ccc(Oc2nccc(-c3ccc(C(F)(F)F)cc3)n2)cc1C(F)(F)F", "note": "[Compound 33]", "values": [
      {"measurement": "BA AD-FOLIAR 300 (ppm)", "setting": "[1]", "value": "B (B 45-75% kill)"}
    ]},
    {"smiles": "FC(F)(F)c1cccc(Oc2nccc(-c3cccc(C(F)(F)F)c3)n2)c1", "note": "[Compound 109]", "values": [
      {"measurement": "pest or weed control at 300 ppm", "setting": "[1]", "value": "45 to 75", "unit": "%"},
      {"measurement": "pest or weed control at 1000 ppm", "setting": "[2]", "value": "0 to 45", "unit": "%"}
    ]},
    {"smiles": "FC(F)(F)c1cccc(Oc2nccc(-c3ccc(Cl)cc3)n2)c1", "note": "[Compound 116]", "values": [
      {"measurement": "pest or weed control at 1000 ppm", "setting": "[2]", "value": "0 to 45", "unit": "%"},
      {"measurement": "pest or weed control at 300 ppm", "setting": "[3]", "value": "45 to 75", "unit": "%"}
    ]},
    {"smiles": "CSc1cc(-c2ccc(Cl)cc2)nc(Oc2cccc(Cl)c2)n1", "note": "[Compound 119]", "values": [
      {"measurement": "pest or weed control at 1000 ppm", "setting": "[2]", "value": "45 to 75", "unit": "%"}
    ]},
    {"smiles": "Fc1ccc(Oc2nccc(-c3ccc(Cl)c(Cl)c3)n2)cc1C(F)(F)F", "note": "[Compound 155]", "values": [
      {"measurement": "pest or weed control at 300 ppm", "setting": "[1]", "value": "76 to 100", "unit": "%"},
      {"measurement": "pest or weed control at 1000 ppm", "setting": "[2]", "value": "0 to 45", "unit": "%"}
    ]},
    {"smiles": "Cc1ccc(-c2ccnc(Oc3cccc(C(F)(F)F)c3)n2)cc1", "note": "[Compound 147]", "values": [
      {"measurement": "pest or weed control at 300 ppm", "setting": "[1]", "value": "76 to 100", "unit": "%"},
      {"measurement": "pest or weed control at 300 ppm", "setting": "[3]", "value": "76 to 100", "unit": "%"}
    ]},
    {"smiles": "CC(C)(C)c1ccc(-c2ccnc(Oc3ccc(Cl)c(C(F)(F)F)c3)n2)cc1", "note": "[Compound 25]", "values": [
      {"measurement": "BA AD-FOLIAR 300 (ppm)", "setting": "[1]", "value": "A (A 0-45% kill)"}
    ]},
    {"smiles": "CCCc1cnc(Oc2cccc(C(F)(F)F)c2)nc1-c1cccc(C(F)(F)F)c1", "note": "[Compound 159]", "values": [
      {"measurement": "pest or weed control at 1000 ppm", "setting": "[2]", "value": "0 to 45", "unit": "%"},
      {"measurement": "pest or weed control at 300 ppm", "setting": "[3]", "value": "45 to 75", "unit": "%"}
    ]},
    {"smiles": "FC(F)(F)Oc1ccc(-c2ccnc(Oc3cc(Cl)cc(Cl)c3)n2)cc1", "note": "[Compound 44]", "values": [
      {"measurement": "SAW 2^ND-FOLIAR 1000 (ppm)", "setting": "[2]", "value": "A (A 0-45% kill)"}
    ]},
    {"smiles": "FC(F)(F)Oc1ccc(-c2ccnc(Oc3cccc(C(F)(F)F)c3)n2)cc1", "note": "[Compound 48]", "values": [
      {"measurement": "BA AD-FOLIAR 300 (ppm)", "setting": "[1]", "value": "B (B 45-75% kill)"},
      {"measurement": "SAW 2^ND-FOLIAR 1000 (ppm)", "setting": "[2]", "value": "A (A 0-45% kill)"},
      {"measurement": "TSM AD-FOLIAR 300 (ppm)", "setting": "[3]", "value": "B (B 45-75% kill)"}
    ]},
    {"smiles": "N#Cc1cccc(Oc2nccc(-c3ccc(Cl)cc3)n2)c1", "note": "[Compound 141]", "values": [
      {"measurement": "pest or weed control at 300 ppm", "setting": "[1]", "value": "45 to 75", "unit": "%"}
    ]},
    {"smiles": "O=[N+]([O-])c1ccc(Oc2nccc(-c3cccc(OC(F)(F)F)c3)n2)cc1C(F)(F)F", "note": "[Compound 40]", "values": [
      {"measurement": "SAW 2^ND-FOLIAR 1000 (ppm)", "setting": "[2]", "value": "A (A 0-45% kill)"}
    ]},
    {"smiles": "Fc1ccc(-c2ccnc(Oc3cccc(C(F)(F)F)c3)n2)cc1", "note": "[Compound 136]", "values": [
      {"measurement": "pest or weed control at 1000 ppm", "setting": "[2]", "value": "0 to 45", "unit": "%"},
      {"measurement": "pest or weed control at 300 ppm", "setting": "[3]", "value": "0 to 45", "unit": "%"}
    ]},
    {"smiles": "Fc1ccc(Oc2nccc(-c3ccc(C(F)(F)F)cc3)n2)cc1C(F)(F)F", "note": "[Compound 29]", "values": [
      {"measurement": "BA AD-FOLIAR 300 (ppm)", "setting": "[1]", "value": "A (A 0-45% kill)"},
      {"measurement": "SAW 2^ND-FOLIAR 1000 (ppm)", "setting": "[2]", "value": "A (A 0-45% kill)"},
      {"measurement": "TSM AD-FOLIAR 300 (ppm)", "setting": "[3]", "value": "B (B 45-75% kill)"}
    ]},
    {"smiles": "FC(F)(F)c1cccc(Oc2nc(Cl)cc(-c3cccc(C(F)(F)F)c3)n2)c1", "note": "[Compound 110]", "values": [
      {"measurement": "pest or weed control at 1000 ppm", "setting": "[2]", "value": "76 to 100", "unit": "%"}
    ]}
  ]
}
